These results are taken from the OPERA property sets (Mansouri et al. 2018).

Conditions in the first data set: not given
`CC(=O)c1cccc(C)c1` yielded a boiling point of 220 °C. Turning to `COC(=O)c1cccc(Cl)c1`, the melting point was 21 °C. Take `CNc1ccc(N)cc1`: the boiling point worked out at 258 °C and the melting point amounted to 36 °C. Take `CC(C)OC(=O)C1(S(=O)(=O)c2ccc([N+](=O)[O-])cc2)CCCCC1`: the melting point worked out at 110 °C.

Molecule `CCc1cccc(C)c1` showed a boiling point of 161 °C, a log10 biodegradation half-life (days) of 0.477, a log10 vapour pressure (mmHg) of 0.483 and a melting point of -95.5 °C. The molecule `CC(=O)OCC#N` returned a boiling point of 200 °C. As to `NC(=O)c1ncccc1O`, the melting point is 195 °C.

In the case of `CCCCCc1ccc2c(c1)C(=O)c1ccccc1C2=O`, the ready biodegradability entry was “not readily biodegradable”. The molecule `O=C(O)Cc1ccc2ccccc2c1` showed a melting point of 142 °C. As for `CCCOC(=O)c1ccc(C(=O)OCCC)nc1`, the ready biodegradability entry is recorded as “not readily biodegradable”.

For the molecule `CCCCCCCCC(O)CCCCCCCC`, the melting point came out at 61 °C. The molecule `CCOc1cccc(-c2ccccc2)c1` gave a boiling point of 305 °C and a melting point of 35 °C.

`Cc1ccc(S(=O)c2ccc(C)cc2)cc1` registered a melting point of 95 °C.

For `Cc1cc(F)ccc1N`, the melting point was 14.2 °C. Molecule `CCN(CC)CC#N` yielded a boiling point of 170 °C. The molecule `O=C1C(O)=C(Cl)C(=O)C(O)=C1Cl` came in with a melting point of 284 °C. Same read-out and setting: for `OCC(F)(F)C(F)(F)C(F)(F)C(F)(F)C(F)(F)C(F)(F)C(F)(F)C(F)F` the value was 56 °C.

`CCCCCCC[N+](=O)[O-]`: the boiling point was 194 °C.

For `C[C@H]1C[C@@H](OC(=O)c2ccccc2)CC(C)(C)N1`, the melting point is 70.5 °C.

Take `CCCN(CCC)N=O`: the boiling point was found to be 206 °C and the ready biodegradability result was “not readily biodegradable”. Consider `Nc1ccc(N)cc1`, for which the boiling point worked out at 267 °C, the melting point stood at 146 °C and the ready biodegradability entry is reported as “not readily biodegradable”.

As to `CSc1ccccc1N`, the boiling point was determined as 234 °C. As for `Brc1cc(Br)c(Br)s1`, the boiling point turned out to be 260 °C and the melting point is 29 °C.

Take `Cc1cc(Br)cc([N+](=O)[O-])c1`: the boiling point was determined as 270 °C and the melting point was determined as 83 °C. `O=C(CCC(=O)OCc1ccccc1)OCc1ccccc1` yielded a melting point of 49.5 °C. Turning to `O=C(O)c1ccc(O)cc1`, the log10 Koa was 8.08, the log10 Koc (L/kg) came to 1.43, the log10 vapour pressure (mmHg) is -6.72 and the melting point came to 214 °C. Also, the ready biodegradability entry is “readily biodegradable”.

In turn, `O=C(O)CC[N+](=O)[O-]` registered a melting point of 62 °C. For the molecule `Cn1c(=O)ccc2ccccc21`, the boiling point came to 325 °C and the melting point stood at 74 °C. `CC(C)NCc1ccccc1` yielded a boiling point of 200 °C. Turning to `CC1CC(C)(C)CC(OOC(C)(C)C)(OOC(C)(C)C)C1` (stereo unspecified), the melting point was -30 °C and the ready biodegradability result was “not readily biodegradable”. Molecule `CCOc1c(N2CCOCC2)cnn(C)c1=O` gave a melting point of 90 °C.

Molecule `C[C@]12C=CC(=O)C=C1CC[C@@H]1[C@@H]2CC[C@]2(C)OC(=O)CC[C@@H]12` showed a melting point of 218 °C. In turn, `CC1=CC(=O)c2ccccc2C1=O` registered a melting point of 107 °C. Take `Cc1ccc2nccnc2c1`: the boiling point is 249 °C and the melting point stood at 218 °C. In turn, `C=CCC(=O)O` showed a boiling point of 169 °C and a melting point of -35 °C.

With `CC(C)(c1ccc(OCCO)cc1)c1ccc(OCCO)cc1`, the ready biodegradability result is reported as “not readily biodegradable”. Consider `CN(Cc1cc(Br)cc(Br)c1N)C1CCCCC1`, for which the melting point came out at 238 °C. In the case of `Nc1c(Cl)cc(Cl)cc1Cl`, the boiling point came out at 262 °C, the melting point was determined as 78.5 °C and the ready biodegradability entry is given as “not readily biodegradable”.

In turn, `CCCCC(C)CCC` (stereo unspecified) gave a boiling point of 142 °C, a log10 biodegradation half-life (days) of 0.699, a log10 vapour pressure (mmHg) of 0.835 and a melting point of -113 °C. Molecule `CCCOc1ccccc1OCC(O)CO` (stereo unspecified) gave a melting point of 70 °C. Still for that read-out and setting: for `Nc1ccc(Br)cc1C(=O)O` the value was 220 °C; for `CC(=O)Oc1c[nH]c2ccccc12`, 129 °C. On to `C=CCCCC(=O)O`, for which the boiling point stood at 203 °C and the melting point is -37 °C.

In turn, `O=Cc1cc(Cl)ccc1Cl` had a boiling point of 232 °C and a melting point of 58 °C. The molecule `CC(=O)Oc1cc(C)ccc1C` returned a boiling point of 237 °C. Turning to `CC[N+](CC)(CC(=O)Nc1c(C)cccc1C)Cc1ccccc1.O=C([O-])c1ccccc1`, the melting point was 168 °C. Same read-out and setting: the value for `COc1cc(OC)n2nc(S(=O)(=O)Nc3c(Cl)ccc(C)c3Cl)nc2n1` was 211 °C. Turning to `CCC(C)C(C)(C)C(C)C` (stereo unspecified), the boiling point came out at 165 °C. Take `Cc1ccc(-c2nc3ccc(C)cn3c2CC(=O)N(C)C)cc1`: the melting point amounted to 196 °C. Turning to `CC(c1ccccc1)c1ccccc1O` (stereo unspecified), the ready biodegradability result is given as “not readily biodegradable”. Same read-out and setting: the value for `C=C(CC(C)(C)c1ccccc1)c1ccccc1` was “not readily biodegradable”. `O=C(O)c1ccccc1Oc1ccccc1` had a boiling point of 355 °C and a melting point of 113 °C. `Nc1ccc2c(c1)CCC2`: the boiling point was 248 °C and the melting point worked out at 37.5 °C. `C=CC(F)(F)C(F)(F)C(F)(F)C(F)(F)C(F)(F)C(F)(F)F` came in with a boiling point of 104 °C.

In the case of `O=C=Nc1ccc(Br)cc1`, the boiling point was 226 °C. On to `ClC1C(Br)C(Br)C(Br)C(Br)C1Br` (stereo unspecified), for which the ready biodegradability entry is listed as “not readily biodegradable”.

`C[N+]1([O-])[C@@H]2C[C@@H](OC(=O)[C@H](CO)c3ccccc3)C[C@H]1[C@@H]1O[C@@H]12` (stereo partly specified) showed a melting point of 80 °C. The same measure, in the same setting: for `O=C1CC(C(=O)O)=CO1` the value was 164 °C. Molecule `CCOC(=O)CCC(=O)CC1(O)C2(Cl)C3(Cl)C4(Cl)C(Cl)(Cl)C5(Cl)C3(Cl)C1(Cl)C5(Cl)C42Cl` (stereo unspecified) yielded a melting point of 91 °C. As to `O=P(O)(O)CCP(=O)(O)O`, the melting point is 218 °C. For `CCOc1ccc2nc(S)sc2c1`, the melting point amounted to 199 °C.

In turn, `O=C1CSC(=S)N1c1ccccc1` came in with a melting point of 194 °C. As for `CC1CCCCN1CCCOC(=O)c1ccc(Cl)c(Cl)c1` (stereo unspecified), the log10 Koc (L/kg) came to 3.7. Consider `O=C1C=C2C(=CCOC2O)O1` (stereo unspecified), for which the melting point amounted to 111 °C.

For `CC(C)(O)C(Br)(Br)Br`, the melting point was determined as 169 °C. With `Cc1ccc(O)cc1Cl`, the boiling point was determined as 228 °C, the melting point is 55.5 °C and the ready biodegradability entry is recorded as “not readily biodegradable”. With `O=C1CCCCCC1c1ccccc1` (stereo unspecified), the melting point was 22.2 °C. The molecule `Nc1ccc2[nH]ccc2c1` displayed a melting point of 132 °C. Take `Cc1cc(C)cc(OCC2CNC(=O)O2)c1` (stereo unspecified): the melting point was 122 °C. With `CC1CCC(C(C)C)C(O)C1` (stereo unspecified), the log10 vapour pressure (mmHg) was -1.08, the melting point was 39 °C and the ready biodegradability entry is on record as “not readily biodegradable”.

The molecule `Nc1ncnc2c1ncn2[C@@H]1O[C@H](CO)[C@@H](O)[C@H]1O` had a melting point of 246 °C. Regarding `C[C@]12CC[C@H]3[C@@H](CCC4=C(O)C(=O)CC[C@@H]43)[C@@H]1CC[C@@H]2O`, the melting point was 189 °C.

`CC(C)(O)Cc1ccc(Cl)cc1` gave a melting point of 34 °C. In turn, `O=C(O)CONC(=O)c1ccccc1` came in with a melting point of 140 °C. `O=C1c2ccccc2C(=O)c2c1ccc([N+](=O)[O-])c2[N+](=O)[O-]`: the log10 vapour pressure (mmHg) was -11.2 and the melting point was 341 °C.

The same data set, now with this note: fish.
For the molecule `CCCCCc1ccc2c(c1)C(=O)c1ccccc1C2=O`, the log10 BCF is 2.94 and the log10 biotransformation half-life (days) stood at 0.2. Take `CC1CC(C)(C)CC(OOC(C)(C)C)(OOC(C)(C)C)C1` (stereo unspecified): the log10 BCF was 3.96. On to `Nc1c(Cl)cc(Cl)cc1Cl`, for which the log10 BCF was found to be 2 and the log10 biotransformation half-life (days) worked out at 0.67. For the molecule `ClC1C(Br)C(Br)C(Br)C(Br)C1Br` (stereo unspecified), the log10 BCF was 2.41 and the log10 biotransformation half-life (days) was -0.31. Taken in the same sequence, the figures for `CC1CCC(C(C)C)C(O)C1` (stereo unspecified) were 1.03 and -1.19.

The boiling point is the temperature at which the vapour pressure of the liquid equals the pressure above it. The term melting point denotes the temperature, or range, at which the solid turns liquid.
